Results: ChEMBL document CHEMBL3856264, “Discovery of novel 2',4'-dimethyl-[4,5'-bithiazol]-2-yl amino derivatives as orally bioavailable TRPV4 antagonists for the treatment of pain: Part 1” (Bioorg Med Chem Lett, 2016)
In brackets after ≈: the same amount, converted by molar mass.

Tests used:
[1] = biological target: T1, Transient receptor potential cation channel subfamily V member 4 (Homo sapiens, UniProt Q9HBA0); assay: Antagonist activity at human recombinant TRPV4 expressed in CHO-K1 cells assessed as blockade of 1000 nM 4alphaPDD-induced calcium mobilization by FLIPR assay; format: cell-based
T1 sequence (Q9HBA0 whole entry): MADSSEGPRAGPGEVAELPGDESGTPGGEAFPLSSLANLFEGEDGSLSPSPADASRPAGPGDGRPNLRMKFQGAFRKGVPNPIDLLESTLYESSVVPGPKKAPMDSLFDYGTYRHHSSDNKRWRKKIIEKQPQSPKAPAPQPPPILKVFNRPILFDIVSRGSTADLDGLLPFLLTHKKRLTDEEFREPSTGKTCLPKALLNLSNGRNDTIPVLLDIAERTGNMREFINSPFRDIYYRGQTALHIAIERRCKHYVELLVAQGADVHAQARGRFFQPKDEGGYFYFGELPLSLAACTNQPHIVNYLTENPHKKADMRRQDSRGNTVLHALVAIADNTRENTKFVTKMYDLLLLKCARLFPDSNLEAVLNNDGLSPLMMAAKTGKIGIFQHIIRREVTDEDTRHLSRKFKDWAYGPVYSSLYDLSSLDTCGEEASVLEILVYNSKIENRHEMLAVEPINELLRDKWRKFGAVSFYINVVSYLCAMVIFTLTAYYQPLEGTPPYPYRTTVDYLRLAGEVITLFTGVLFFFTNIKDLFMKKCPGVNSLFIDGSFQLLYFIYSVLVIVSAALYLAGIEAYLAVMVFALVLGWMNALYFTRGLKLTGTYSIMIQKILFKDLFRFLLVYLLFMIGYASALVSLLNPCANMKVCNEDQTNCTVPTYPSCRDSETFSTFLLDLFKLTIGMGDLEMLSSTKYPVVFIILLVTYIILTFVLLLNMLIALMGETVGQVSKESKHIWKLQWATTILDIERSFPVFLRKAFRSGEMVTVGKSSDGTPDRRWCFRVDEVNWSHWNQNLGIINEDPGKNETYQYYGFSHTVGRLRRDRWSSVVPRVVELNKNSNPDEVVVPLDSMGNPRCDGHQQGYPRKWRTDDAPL

[2] = Stability in human liver microsomes assessed as compound remaining after 30 mins in presence or absence of NADPH generating system at 37 degC; format: ADME, microsome; settings: read-out: Stability
[3] = Aqueous solubility of compound in sodium phosphate buffer containing 1% DMSO at pH 6.8; format: physicochemical
[4] = Antagonist activity at guinea pig recombinant TRPV4 expressed in CHO-K1 cells assessed as blockade of 250 nM 4alphaPDD-induced calcium mobilization by FLIPR assay; format: cell-based; settings: Cavia porcellus
[5] = biological target: Transient receptor potential cation channel subfamily V member 1 (Homo sapiens, UniProt Q8NER1); assay: Antagonist activity at human TRPV1 expressed in CHO cells assessed as blockade of 100 nM capsaicin-induced calcium mobilization by FLIPR assay; format: cell-based
Transient receptor potential cation channel subfamily V member 1, sequence (Q8NER1 whole entry): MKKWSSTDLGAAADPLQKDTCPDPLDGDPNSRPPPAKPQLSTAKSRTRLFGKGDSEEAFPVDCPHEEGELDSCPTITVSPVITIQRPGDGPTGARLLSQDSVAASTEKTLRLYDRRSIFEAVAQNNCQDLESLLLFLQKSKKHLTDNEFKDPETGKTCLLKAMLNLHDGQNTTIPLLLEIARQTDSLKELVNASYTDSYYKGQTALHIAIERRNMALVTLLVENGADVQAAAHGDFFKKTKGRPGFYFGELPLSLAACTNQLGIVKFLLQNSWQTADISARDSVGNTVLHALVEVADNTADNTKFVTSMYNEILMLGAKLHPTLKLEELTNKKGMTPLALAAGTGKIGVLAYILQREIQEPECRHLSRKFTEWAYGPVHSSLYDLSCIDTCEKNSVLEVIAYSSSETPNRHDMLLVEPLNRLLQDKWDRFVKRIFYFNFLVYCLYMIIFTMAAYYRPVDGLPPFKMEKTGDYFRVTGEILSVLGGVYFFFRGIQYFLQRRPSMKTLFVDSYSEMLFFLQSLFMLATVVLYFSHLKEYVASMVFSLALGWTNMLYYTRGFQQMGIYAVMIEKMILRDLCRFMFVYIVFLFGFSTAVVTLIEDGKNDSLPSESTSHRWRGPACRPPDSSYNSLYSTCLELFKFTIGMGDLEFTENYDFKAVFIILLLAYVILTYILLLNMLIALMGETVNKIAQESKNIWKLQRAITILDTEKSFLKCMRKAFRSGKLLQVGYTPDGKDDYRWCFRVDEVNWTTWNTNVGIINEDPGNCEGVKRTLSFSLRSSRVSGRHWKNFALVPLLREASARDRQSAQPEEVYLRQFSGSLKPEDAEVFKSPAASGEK

[6] = Stability in guinea pig liver microsomes assessed as compound remaining after 30 mins in presence or absence of NADPH generating system at 37 degC; format: ADME, Cavia porcellus, microsome; settings: read-out: Stability
[7] = biological target: T2, Cytochrome P450 1A2 (Homo sapiens, UniProt P05177); assay: Inhibition of CYP1A2 (unknown origin); format: ADME
T2 sequence (P05177 whole entry): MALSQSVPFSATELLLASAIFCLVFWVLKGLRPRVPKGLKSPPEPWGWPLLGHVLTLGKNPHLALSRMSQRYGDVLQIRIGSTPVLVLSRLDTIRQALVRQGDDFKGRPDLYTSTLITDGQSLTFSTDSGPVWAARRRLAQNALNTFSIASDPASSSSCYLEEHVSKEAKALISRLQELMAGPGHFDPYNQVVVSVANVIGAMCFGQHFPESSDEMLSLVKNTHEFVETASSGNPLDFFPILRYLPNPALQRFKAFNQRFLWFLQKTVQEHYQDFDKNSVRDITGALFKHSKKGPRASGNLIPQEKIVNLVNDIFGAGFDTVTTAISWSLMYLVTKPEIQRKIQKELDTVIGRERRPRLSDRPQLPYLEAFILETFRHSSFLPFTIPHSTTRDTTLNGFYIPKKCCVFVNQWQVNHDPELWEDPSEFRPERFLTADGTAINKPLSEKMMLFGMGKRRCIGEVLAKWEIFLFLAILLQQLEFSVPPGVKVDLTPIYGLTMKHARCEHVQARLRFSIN

[8] = biological target: Cytochrome P450 2C19 (Homo sapiens, UniProt P33261); assay: Inhibition of CYP2C19 (unknown origin); format: ADME
Cytochrome P450 2C19, sequence (P33261 whole entry): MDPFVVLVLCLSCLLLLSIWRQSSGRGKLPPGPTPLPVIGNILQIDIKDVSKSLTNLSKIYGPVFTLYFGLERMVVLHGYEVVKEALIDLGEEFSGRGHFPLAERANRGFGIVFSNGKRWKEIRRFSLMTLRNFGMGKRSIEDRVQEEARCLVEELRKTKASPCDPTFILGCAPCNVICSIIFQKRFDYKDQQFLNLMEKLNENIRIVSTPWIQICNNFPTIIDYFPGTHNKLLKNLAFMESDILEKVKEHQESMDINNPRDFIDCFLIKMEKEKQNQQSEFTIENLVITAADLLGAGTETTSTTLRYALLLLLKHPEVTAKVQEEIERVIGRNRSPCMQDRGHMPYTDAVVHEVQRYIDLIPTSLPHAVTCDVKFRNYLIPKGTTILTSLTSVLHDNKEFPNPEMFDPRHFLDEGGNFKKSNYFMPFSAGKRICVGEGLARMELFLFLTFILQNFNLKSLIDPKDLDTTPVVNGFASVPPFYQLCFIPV

[9] = biological target: Cytochrome P450 2C9 (Homo sapiens, UniProt P11712); assay: Inhibition of CYP2C9 (unknown origin); format: ADME
Cytochrome P450 2C9, sequence (P11712 whole entry): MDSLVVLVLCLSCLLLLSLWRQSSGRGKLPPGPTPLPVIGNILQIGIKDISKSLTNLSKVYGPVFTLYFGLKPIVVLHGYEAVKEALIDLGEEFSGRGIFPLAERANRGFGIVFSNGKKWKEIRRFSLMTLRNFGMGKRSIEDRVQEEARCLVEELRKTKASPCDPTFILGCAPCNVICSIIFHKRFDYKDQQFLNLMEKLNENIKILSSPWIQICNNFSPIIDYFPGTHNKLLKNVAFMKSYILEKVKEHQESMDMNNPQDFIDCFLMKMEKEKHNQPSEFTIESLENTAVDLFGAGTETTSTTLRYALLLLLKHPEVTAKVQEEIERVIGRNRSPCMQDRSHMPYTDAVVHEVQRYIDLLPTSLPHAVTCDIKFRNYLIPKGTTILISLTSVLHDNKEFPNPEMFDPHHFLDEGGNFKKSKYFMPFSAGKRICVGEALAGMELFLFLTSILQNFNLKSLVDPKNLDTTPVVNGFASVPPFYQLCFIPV

[10] = biological target: Cytochrome P450 2D6 (Homo sapiens, UniProt P10635); assay: Inhibition of CYP2D6 (unknown origin); format: ADME
Cytochrome P450 2D6, sequence (P10635 whole entry): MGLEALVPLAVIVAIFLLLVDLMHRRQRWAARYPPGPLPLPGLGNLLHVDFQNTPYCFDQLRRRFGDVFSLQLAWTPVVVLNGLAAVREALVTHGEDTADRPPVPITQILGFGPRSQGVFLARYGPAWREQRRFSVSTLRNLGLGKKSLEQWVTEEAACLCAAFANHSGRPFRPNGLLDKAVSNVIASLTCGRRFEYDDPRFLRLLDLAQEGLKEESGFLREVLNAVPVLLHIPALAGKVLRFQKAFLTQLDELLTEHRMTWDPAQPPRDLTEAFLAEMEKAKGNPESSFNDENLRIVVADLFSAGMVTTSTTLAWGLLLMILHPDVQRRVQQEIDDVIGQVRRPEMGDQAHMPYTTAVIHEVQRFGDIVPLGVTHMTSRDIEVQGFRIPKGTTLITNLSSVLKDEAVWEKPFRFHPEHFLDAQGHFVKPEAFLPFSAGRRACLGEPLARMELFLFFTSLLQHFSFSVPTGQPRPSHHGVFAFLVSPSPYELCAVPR

[11] = biological target: Cytochrome P450 3A4 (Homo sapiens, UniProt P08684); assay: Inhibition of CYP3A4 (unknown origin); format: ADME
Cytochrome P450 3A4, sequence (P08684 whole entry): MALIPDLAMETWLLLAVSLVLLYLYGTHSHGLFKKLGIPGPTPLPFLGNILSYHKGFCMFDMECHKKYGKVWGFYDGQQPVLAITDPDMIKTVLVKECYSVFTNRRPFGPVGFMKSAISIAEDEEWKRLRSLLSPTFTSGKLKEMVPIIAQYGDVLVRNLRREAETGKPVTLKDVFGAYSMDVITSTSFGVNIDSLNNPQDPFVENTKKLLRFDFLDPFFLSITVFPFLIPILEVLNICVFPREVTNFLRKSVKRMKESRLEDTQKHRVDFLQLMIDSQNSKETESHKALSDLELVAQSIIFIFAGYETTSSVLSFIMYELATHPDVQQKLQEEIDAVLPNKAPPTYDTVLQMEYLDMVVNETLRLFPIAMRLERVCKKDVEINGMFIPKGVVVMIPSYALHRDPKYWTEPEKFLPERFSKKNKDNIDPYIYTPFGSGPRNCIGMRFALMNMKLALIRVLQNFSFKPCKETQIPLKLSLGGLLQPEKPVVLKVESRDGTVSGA

[12] = Protein binding in guinea pig plasma; format: ADME, cell-free, Cavia porcellus; settings: read-out: PPB (converted)
[13] = biological target: Voltage-gated inwardly rectifying potassium channel KCNH2 (Homo sapiens, UniProt Q12809); assay: Inhibition of human ERG
Voltage-gated inwardly rectifying potassium channel KCNH2, sequence (Q12809 whole entry): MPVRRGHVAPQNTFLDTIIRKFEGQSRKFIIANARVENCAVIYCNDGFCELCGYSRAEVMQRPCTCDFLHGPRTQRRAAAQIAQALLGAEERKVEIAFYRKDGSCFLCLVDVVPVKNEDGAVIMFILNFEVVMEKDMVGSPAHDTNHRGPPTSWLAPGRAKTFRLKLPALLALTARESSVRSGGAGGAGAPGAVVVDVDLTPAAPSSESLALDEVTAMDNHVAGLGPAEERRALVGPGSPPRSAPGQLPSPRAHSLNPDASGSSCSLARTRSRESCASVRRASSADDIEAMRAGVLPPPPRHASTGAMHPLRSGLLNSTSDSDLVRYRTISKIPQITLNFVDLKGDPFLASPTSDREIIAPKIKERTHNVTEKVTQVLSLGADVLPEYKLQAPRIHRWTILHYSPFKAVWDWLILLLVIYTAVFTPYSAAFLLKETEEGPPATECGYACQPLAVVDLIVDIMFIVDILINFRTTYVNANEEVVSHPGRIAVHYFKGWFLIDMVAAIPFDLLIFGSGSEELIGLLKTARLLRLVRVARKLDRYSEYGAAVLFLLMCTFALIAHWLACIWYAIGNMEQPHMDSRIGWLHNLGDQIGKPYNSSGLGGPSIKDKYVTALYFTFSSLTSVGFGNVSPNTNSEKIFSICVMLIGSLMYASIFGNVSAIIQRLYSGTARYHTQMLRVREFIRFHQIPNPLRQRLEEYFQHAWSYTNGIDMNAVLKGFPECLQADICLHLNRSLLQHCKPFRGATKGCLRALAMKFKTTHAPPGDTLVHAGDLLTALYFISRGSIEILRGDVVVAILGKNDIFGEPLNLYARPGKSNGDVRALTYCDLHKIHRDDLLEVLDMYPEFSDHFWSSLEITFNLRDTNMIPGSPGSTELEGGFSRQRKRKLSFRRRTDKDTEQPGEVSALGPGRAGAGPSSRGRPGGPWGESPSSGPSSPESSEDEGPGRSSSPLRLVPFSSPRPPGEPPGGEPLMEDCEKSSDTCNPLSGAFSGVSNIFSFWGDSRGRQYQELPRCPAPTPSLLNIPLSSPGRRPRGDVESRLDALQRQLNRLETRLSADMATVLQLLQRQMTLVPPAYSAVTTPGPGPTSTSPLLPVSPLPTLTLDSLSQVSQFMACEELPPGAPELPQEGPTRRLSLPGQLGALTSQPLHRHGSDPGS

[14] = Total clearance in guinea pig at 0.5 mg/kg, iv; format: ADME, organism-based, Cavia porcellus; settings: in vivo
[15] = Half life in guinea pig at 0.5 mg/kg, iv; format: ADME, organism-based, Cavia porcellus; settings: in vivo
[16] = Volume of distribution at steady state in guinea pig at 0.5 mg/kg, iv; format: ADME, organism-based, Cavia porcellus; settings: in vivo, read-out: Vdss
[17] = Cmax in guinea pig at 1 mg/kg, po; format: ADME, organism-based, Cavia porcellus; design: dose 1 mg/kg, route oral; settings: in vivo
[18] = AUC in guinea pig at 1 mg/kg, po; format: ADME, organism-based, Cavia porcellus; settings: in vivo
[19] = Tmax in guinea pig at 1 mg/kg, po; format: ADME, organism-based, Cavia porcellus; settings: in vivo
[20] = Oral bioavailability in guinea pig at 1 mg/kg; format: ADME, organism-based, Cavia porcellus; settings: in vivo
[21] = system: Cavia porcellus; assay: Analgesic activity in FCA-induced guinea pig mechanical hyperalgesia model assessed as reversal of mechanical hyperalgesia at 10 mg/kg, po after 1 hr (reference value: 1.6 +/- 3.4%); format: functional
[22] = system: Cavia porcellus; assay: Analgesic activity in FCA-induced guinea pig mechanical hyperalgesia model assessed as reversal of mechanical hyperalgesia at 30 mg/kg, po after 1 hr (reference value: 1.6 +/- 3.4%); format: functional
[23] = Plasma concentration in FCA-induced guinea pig mechanical hyperalgesia model at 10 mg/kg, po after 1 hr; format: ADME, organism-based, Cavia porcellus
[24] = Plasma concentration in FCA-induced guinea pig mechanical hyperalgesia model at 30 mg/kg, po after 1 hr; format: ADME, organism-based, Cavia porcellus
[25] = system: Salmonella typhimurium; assay: Genotoxicity in Salmonella typhimurium by Ames test; format: toxicity, organism-based; settings: salmonella enterica subsp. enterica serovar typhimurium
[26] = system: CHO-K1; assay: Selectivity ratio of IC50 for guinea pig recombinant TRPV4 expressed in CHO-K1 cells to IC50 for human recombinant TRPV4 expressed in CHO-K1 cells; format: cell-based
[27] = biological target: T1, Transient receptor potential cation channel subfamily V member 4; assay: Antagonist activity at human recombinant TRPV4 expressed in CHO-K1 cells assessed as blockade of hypotonic solution-induced calcium mobilization by FLIPR assay; format: cell-based

SMILES: Cc1nc(C)c(-c2csc(Nc3ccc(C(=O)N4C(C)CCCC4C)cn3)n2)s1 (centres undefined)
- IC50 [1]: 6.3 nM
- remaining at 0.5 h [2]: 2.1%
- solubility [3]: < 0.1 µM

SMILES: COc1ccnc(Nc2nc(-c3sc(C)nc3C)cs2)c1
- IC50 [1]: 410 nM
- remaining at 0.5 h [2]: 0.7%

SMILES: Cc1nc(C)c(-c2csc(Nc3ccc(C(=O)N(C)c4ccc(Cl)cc4)cn3)n2)s1
- IC50 [1]: 50 nM
- remaining at 0.5 h [2]: 53.6%
- solubility [3]: 1.4 µM (≈ 0.638 µg/mL)

SMILES: Cc1nc(C)c(-c2csc(Nc3cccc(C#N)n3)n2)s1
- IC50 [1]: 100 nM
- remaining at 0.5 h [2]: 66.4%

SMILES: Cc1nc(C)c(-c2csc(Nc3cc(C#N)ccn3)n2)s1
- IC50 [1]: 240 nM
- remaining at 0.5 h [2]: 2.8%

SMILES: Cc1nc(C)c(-c2csc(Nc3ncccc3C#N)n2)s1
- IC50 [1]: 4300 nM
- remaining at 0.5 h [2]: 1.3%

SMILES: Cc1nc(C)c(-c2csc(Nc3ncccn3)n2)s1
- IC50 [1]: 10000 nM
- remaining at 0.5 h [2]: 0.3%

SMILES: Cc1nc(C)c(-c2csc(Nc3ccc(NC(=O)c4ccc(Cl)cc4)cn3)n2)s1
- IC50 [1]: > 10000 nM
- remaining at 0.5 h [2]: 65.2%
- solubility [3]: 3.9 µM (≈ 1.72 µg/mL)

SMILES: Cc1nc(C)c(-c2csc(Nc3ccc(C(=O)N4CCCCC4)cn3)n2)s1
- IC50 [1]: 37 nM
- remaining at 0.5 h [2]: 74.5%
- solubility [3]: 0.8 µM (≈ 0.32 µg/mL)

SMILES: Cc1nc(C)c(-c2csc(Nc3ccc(C(=O)N4C5CCC4CC(=O)C5)cn3)n2)s1
- remaining at 0.5 h [2]: 81%
- solubility [3]: 46.4 µM (≈ 20.4 µg/mL)

SMILES: Cc1nc(C)c(-c2csc(Nc3ccc(NS(=O)(=O)c4ccc(Cl)cc4)cn3)n2)s1
- IC50 [1]: 240 nM
- remaining at 0.5 h [2]: 81.5%
- solubility [3]: 1.2 µM (≈ 0.574 µg/mL)

SMILES: Cc1nc(C)c(-c2csc(Nc3ccc(C(=O)NCc4ccc(Cl)cc4)cn3)n2)s1
- IC50 [1]: 200 nM
- remaining at 0.5 h [2]: 50.8%
- solubility [3]: 2.5 µM (≈ 1.14 µg/mL)

SMILES: COc1ccc(Nc2nc(-c3sc(C)nc3C)cs2)nc1
- IC50 [1]: 35 nM
- remaining at 0.5 h [2]: 10%

SMILES: Cc1nc(C)c(-c2csc(Nc3ccc(C(=O)NC4CCCCC4)cn3)n2)s1
- IC50 [1]: 29 nM
- remaining at 0.5 h [2]: 55%
- solubility [3]: 1.8 µM (≈ 0.744 µg/mL)

SMILES: Cc1nc(C)c(-c2csc(Nc3ccc(Br)cc3)n2)s1
- IC50 [1]: 34 nM
- remaining at 0.5 h [2]: 86.4%

SMILES: Cc1nc(C)c(-c2csc(Nc3ccc(C#N)cn3)n2)s1
- IC50 [1]: 22 nM
- remaining at 0.5 h [2]: 65%
- solubility [3]: 1.7 µM (≈ 0.533 µg/mL)

SMILES: COc1cccc(Nc2nc(-c3sc(C)nc3C)cs2)n1
- IC50 [1]: 23 nM
- remaining at 0.5 h [2]: 40%

SMILES: Cc1nc(C)c(-c2csc(Nc3ccccn3)n2)s1
- IC50 [1]: 10 nM
- remaining at 0.5 h [2]: 1.1%

SMILES: Cc1nc(C)c(-c2csc(Nc3ccncc3)n2)s1
- IC50 [1]: 3300 nM
- remaining at 0.5 h [2]: 17.8%

SMILES: CCOC(=O)c1ccc(Nc2nc(-c3sc(C)nc3C)cs2)nc1
- IC50 [1]: 11 nM
- remaining at 0.5 h [2]: 13.5%
- solubility [3]: 3.4 µM (≈ 1.23 µg/mL)

SMILES: Cc1nc(C)c(-c2csc(Nc3ccc(C(=O)N4CCC(=O)CC4)cn3)n2)s1
- IC50 [1]: 620 nM
- remaining at 0.5 h [2]: 1.4%
- solubility [3]: > 50 µM

SMILES: COc1cccnc1Nc1nc(-c2sc(C)nc2C)cs1
- IC50 [1]: > 10000 nM
- remaining at 0.5 h [2]: 30.9%

SMILES: Cc1nc(C)c(-c2csc(Nc3ccc(C(=O)O)cn3)n2)s1
- IC50 [1]: > 10000 nM
- remaining at 0.5 h [2]: 100%
- solubility [3]: > 50 µM

SMILES: Cc1nc(C)c(-c2csc(Nc3ccc(S(=O)(=O)Nc4ccc(Cl)cc4)cn3)n2)s1
- IC50 [1]: 290 nM
- remaining at 0.5 h [2]: 83.4%
- solubility [3]: 4.5 µM (≈ 2.15 µg/mL)

SMILES: Cc1nc(C)c(-c2csc(Nc3ccccc3)n2)s1
- IC50 [1]: 31 nM
- remaining at 0.5 h [2]: 22.8%

SMILES: Cc1nc(C)c(-c2csc(Nc3ccc(C(=O)Nc4ccc(Cl)cc4)cn3)n2)s1
- IC50 [1]: 9.5 nM
- remaining at 0.5 h [2]: 54.6%
- solubility [3]: 10.6 µM (≈ 4.68 µg/mL)

SMILES: Cc1nc(C)c(-c2csc(Nc3ccc(C(=O)N4C5COCC4CC(=O)C5)cn3)n2)s1
- remaining at 0.5 h [2]: 100%
- solubility [3]: > 50 µM
- IC50 [4]: 27 nM
- IC50 [5]: > 10000 nM
- remaining at 0.5 h [6]: 84%
- INH [7]: > 20 µM
- INH [8]: > 20 µM
- INH [9]: > 20 µM
- INH [10]: > 20 µM
- INH [11]: > 20 µM
- fraction unbound [12]: 0.1
- IC50 [13]: > 30000 nM
- clearance [14]: 37.1 mL/min/kg
- half-life [15]: 66 min
- Vd [16]: 2.5 L/kg
- Cmax [17]: 59.2 ng/mL
- AUC [18]: 200 ng·h/mL
- Tmax [19]: 30 min
- bioavailability [20]: 38.6%
- Activity [21]: 30.8%
- Activity [22]: 45.6%
- concentration at 1 h [23]: 515 ng/mL
- concentration at 1 h [24]: 1940 ng/mL
- Activity [25]: Non-Toxic
- Ratio IC50 [26]: 1.4
- IC50 [27]: 3.1 nM

SMILES: Cc1nc(C)c(-c2csc(Nc3cccnc3)n2)s1
- IC50 [1]: 490 nM
- remaining at 0.5 h [2]: 39.5%

SMILES: CCNC(=O)c1ccc(Nc2nc(-c3sc(C)nc3C)cs2)nc1
- IC50 [1]: > 10000 nM
- remaining at 0.5 h [2]: 81.4%
- solubility [3]: 2.8 µM (≈ 1.01 µg/mL)

SMILES: Cc1nc(C)c(-c2csc(Nc3ccc(C(=O)N4C(C)CC(=O)CC4C)cn3)n2)s1 (centres undefined)
- IC50 [1]: 46 nM
- remaining at 0.5 h [2]: 52.8%
- solubility [3]: 45 µM (≈ 19.9 µg/mL)
